Assay results published in ChEMBL document CHEMBL1165872, “Synthesis and molecular docking studies of 1-phenyl-4-glycosyl-dihydropyridines as potent antileishmanial agents” (Eur J Med Chem, 2010).
Converted amounts (≈) assume the structure as drawn.

Experiments:
Leishmania donovani [1] = assay: Antileishmanial activity against Leishmania donovani MHOM/IN/Dd8 promastigote carrying firefly luciferase gene assessed as relative luminescence unit at 40 ug/mL after 72 hrs; format: functional; conditions: MHOM/IN/Dd8, 72 h
[2] = Cytotoxicity against mouse J774A1 cells after 72 hrs by MTT assay; format: cell-based, J774.A1
Leishmania donovani [3] = assay: Antileishmanial activity against Leishmania donovani MHOM/IN/Dd8 amastigote carrying firefly luciferase gene infected in mouse J774A1 cells assessed as relative luminescence unit after 72 hrs; format: functional, organism-based, J774.A1
Leishmania donovani [4] = assay: Antileishmanial activity against Leishmania donovani MHOM/IN/Dd8 promastigote carrying firefly luciferase gene assessed as relative luminescence unit after 72 hrs; format: functional, organism-based
Leishmania donovani [5] = assay: Antileishmanial activity against Leishmania donovani MHOM/IN/Dd8 amastigote infected in hamster assessed as inhibition of amastigote multiplication at 50 mg/kg, ip for 5 days; format: functional; conditions: 120 h, route intraperitoneal
[6] = Selectivity index, ratio of CC50 for mouse J774A1 cells to IC50 for Leishmania donovani MHOM/IN/Dd8 amastigote; format: functional, J774.A1
Leishmania donovani [7] = assay: Antileishmanial activity against Leishmania donovani MHOM/IN/Dd8 amastigote infected in hamster assessed as inhibition of amastigote multiplication at 30 mg/kg, po for 5 days; format: functional; conditions: MHOM/IN/Dd8, 120 h
Leishmania donovani [8] = assay: Antileishmanial activity against Leishmania donovani MHOM/IN/Dd8 amastigote infected in hamster assessed as inhibition of amastigote multiplication at 40 mg/kg, ip for 5 days; format: functional; conditions: 120 h, route intraperitoneal
[9] = Leishmania donovani, MHOM/IN/Dd8, J774.A1, 72 h, read-out: IC50
[10] = Leishmania donovani, MHOM/IN/Dd8, 72 h, read-out: IC50

| Compound | inhibition at 40 µg/mL (Leishmania donovani [1]) | CC50 at 72 h [2] | IC50 (Leishmania donovani [3]; [9]) | IC50 (Leishmania donovani [4]; [10]) | inhibition in vivo at 50 mg/kg (Leishmania donovani [5]) | Ratio CC50/IC50 [6] | IC50 (Leishmania donovani [3]; j774.a1) | IC50 (Leishmania donovani [4]) | inhibition in vivo at 30 mg/kg (Leishmania donovani [7]) | inhibition in vivo at 40 mg/kg (Leishmania donovani [8]) |
| --- | --- | --- | --- | --- | --- | --- | --- | --- | --- | --- |
| COC(=O)C1=C(C)N(c2ccc(OC)cc2)C(C)=C(C(=O)OC)C1[C@@H]1O[C@H]2OC(C)(C)O[C@H]2[C@@H]1OCc1ccccc1 | > 80% | 14.1 µg/mL (≈ 24.4 µM) | 0.75 µg/mL (≈ 1.29 µM) | 1.94 µg/mL (≈ 3.35 µM) | 26.8% | 18.93 | – | – | – | – |
| CCOC(=O)C1=C(C)N(c2ccc(OC)cc2)C(C)=C(C(=O)OCC)C1[C@@H]1O[C@H]2OC(C)(C)O[C@H]2[C@@H]1OCc1ccccc1 | > 80% | 59.9 µg/mL (≈ 98.6 µM) | 8.08 µg/mL (≈ 13.3 µM) | 1.65 µg/mL (≈ 2.72 µM) | – | 7.42 | – | – | – | – |
| COC(=O)C1=C(C)N(c2ccc(Cl)cc2)C(C)=C(C(=O)OC)C1[C@@H]1O[C@H]2OC(C)(C)O[C@H]2[C@@H]1OCc1ccccc1 | > 80% | 4.22 µg/mL (≈ 7.23 µM) | 3.8 µg/mL (≈ 6.51 µM) | 1.86 µg/mL (≈ 3.18 µM) | – | 1.109 | – | – | – | – |
| COC(=O)C1=C(C)N(c2ccc(N)cc2)C(C)=C(C(=O)OC)C1[C@@H]1O[C@H]2OC(C)(C)O[C@H]2[C@@H]2OC(C)(C)O[C@@H]21 | > 80% | – | – | – | – | – | Not Active | Not Active | – | – |
| COC(=O)C1=C(C)N(c2ccc(Cl)c(Cl)c2)C(C)=C(C(=O)OC)C1[C@@H]1O[C@H]2OC(C)(C)O[C@H]2[C@@H]1O | > 80% | 29.9 µg/mL (≈ 56.7 µM) | 10.1 µg/mL (≈ 19.2 µM) | 3.72 µg/mL (≈ 7.04 µM) | – | 2.96 | – | – | – | – |
| CCOC(=O)C1=C(C)N(c2ccc(C)cc2)C(C)=C(C(=O)OCC)C1[C@@H]1O[C@H]2OC(C)(C)O[C@H]2[C@@H]1OC | > 80% | – | – | – | – | – | Not Active | Not Active | – | – |
| COC(=O)C1=C(C)N(c2ccc(Cl)cc2)C(C)=C(C(=O)OC)C1[C@@H]1O[C@H]2OC(C)(C)O[C@H]2[C@@H]1OC | > 80% | 82.4 µg/mL (≈ 162 µM) | 19.1 µg/mL (≈ 37.5 µM) | 1.94 µg/mL (≈ 3.82 µM) | – | 4.32 | – | – | – | – |
| COC(=O)C1=C(C)N(c2ccc(F)cc2)C(C)=C(C(=O)OC)C1[C@@H]1O[C@H]2OC(C)(C)O[C@H]2[C@@H]1OCc1ccccc1 | > 80% | – | – | 3.67 µg/mL (≈ 6.47 µM) | – | – | Not Active | – | – | – |
| COC(=O)C1=C(C)N(c2ccc(C)cc2)C(C)=C(C(=O)OC)C1[C@@H]1O[C@H]2OC(C)(C)O[C@H]2[C@@H]1OCc1ccccc1 | > 80% | 7.66 µg/mL (≈ 13.6 µM) | 4.89 µg/mL (≈ 8.68 µM) | 3.62 µg/mL (≈ 6.42 µM) | – | – | – | – | – | – |
| COC(=O)C1=C(C)N(c2ccc(OC)cc2)C(C)=C(C(=O)OC)C1[C@@H]1O[C@H]2OC(C)(C)O[C@H]2[C@@H]1OC | > 80% | 18.6 µg/mL (≈ 37 µM) | 4.42 µg/mL (≈ 8.78 µM) | 12.4 µg/mL (≈ 24.6 µM) | – | 4.21 | – | – | – | – |
| COC(=O)C1=C(C)N(c2ccc(Br)cc2)C(C)=C(C(=O)OC)C1[C@@H]1O[C@H]2OC(C)(C)O[C@H]2[C@@H]1OC | > 80% | 48.5 µg/mL (≈ 87.8 µM) | 3.57 µg/mL (≈ 6.46 µM) | 0.88 µg/mL (≈ 1.59 µM) | 43.9% | 13.58 | – | – | – | – |
| COC(=O)C1=C(C)N(c2ccc(C)cc2)C(C)=C(C(=O)OC)C1[C@@H]1O[C@H]2OC(C)(C)O[C@H]2[C@@H]1OC | > 80% | 33.1 µg/mL (≈ 67.8 µM) | 4.45 µg/mL (≈ 9.13 µM) | 1.74 µg/mL (≈ 3.57 µM) | 58.8% | 7.43 | – | – | – | – |
| CCOC(=O)C1=C(C)N(c2ccccc2OC)C(C)=C(C(=O)OCC)C1[C@@H]1O[C@H]2OC(C)(C)O[C@H]2[C@@H]1OC | > 80% | 49.7 µg/mL (≈ 93.5 µM) | 6.18 µg/mL (≈ 11.6 µM) | 0.22 µg/mL (≈ 0.414 µM) | 49.7% | 8.04 | – | – | – | – |
| COC(=O)C1=C(C)N(c2ccc(OC)cc2)C(C)=C(C(=O)OC)C1[C@@H]1O[C@H]2OC(C)(C)O[C@H]2[C@@H]2OC(C)(C)O[C@@H]21 | > 80% | – | – | – | – | – | Not Active | Not Active | – | – |
| COC(=O)C1=C(C)N(c2ccc(Cl)cc2)C(C)=C(C(=O)OC)C1[C@@H]1O[C@H]2OC(C)(C)O[C@H]2[C@@H]2OC(C)(C)O[C@@H]21 | > 80% | 15.2 µg/mL (≈ 27 µM) | 14.3 µg/mL (≈ 25.4 µM) | 4.17 µg/mL (≈ 7.39 µM) | – | 1.06 | – | – | – | – |
| COC(=O)C1=C(C)N(c2ccc(Cl)cc2)C(C)=C(C(=O)OC)C1[C@@H]1O[C@H]2OC(C)(C)O[C@H]2[C@@H]1O | > 80% | 35.5 µg/mL (≈ 71.9 µM) | 3.85 µg/mL (≈ 7.79 µM) | 0.86 µg/mL (≈ 1.74 µM) | 44.9% | 9.21 | – | – | – | – |
| CCCCCCCCCCCCCCCCOP(=O)([O-])OCC[N+](C)(C)C [MILTEFOSINE] | – | 31.3 µg/mL (≈ 76.8 µM) | 12.1 µg/mL (≈ 29.7 µM) | 0.643 µg/mL (≈ 1.58 µM) | – | 2.58 | – | – | 95% | – |
| N=C(N)c1ccc(OCCCCCOc2ccc(C(=N)N)cc2)cc1 [PENTAMIDINE] | – | 3.91 µg/mL (≈ 11.5 µM) | 3.59 µg/mL (≈ 10.5 µM) | 3.23 µg/mL (≈ 9.49 µM) | – | 1.08 | – | – | – | 92% |
